The record followed here is ChEMBL document CHEMBL1909046, “DrugMatrix in vitro pharmacology data”.

The IC50 is the concentration that gives 50% inhibition. A word on the Ki: it is the dissociation constant of the complex between target and ligand, obtained from inhibition or displacement.

In experiment [1] the target is T1, Neuropeptide Y receptor type 1 (Homo sapiens, UniProt P25929). Note: in other assays of this panel Not Active means under 50% inhibition at 10 µM.
T1 sequence (P25929 whole entry): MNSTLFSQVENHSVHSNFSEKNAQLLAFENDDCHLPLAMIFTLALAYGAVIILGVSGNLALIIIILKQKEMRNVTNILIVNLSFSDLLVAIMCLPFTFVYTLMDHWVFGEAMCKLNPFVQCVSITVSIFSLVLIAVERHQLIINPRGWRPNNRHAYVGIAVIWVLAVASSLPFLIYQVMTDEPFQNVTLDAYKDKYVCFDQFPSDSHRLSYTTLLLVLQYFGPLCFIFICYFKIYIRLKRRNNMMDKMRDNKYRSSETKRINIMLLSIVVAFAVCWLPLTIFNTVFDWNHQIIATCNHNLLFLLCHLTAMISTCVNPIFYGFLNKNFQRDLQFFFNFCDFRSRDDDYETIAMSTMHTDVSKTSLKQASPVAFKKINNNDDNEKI
The format is cell membranes, Membrane. The conditions noted are these: sk-n-mc.

Experiment [2] concerns the target T2, C-X-C chemokine receptor type 2 (Homo sapiens, UniProt P25025). Note: in other assays of this panel Not Active means under 50% inhibition at 10 µM.
T2 sequence (P25025 whole entry): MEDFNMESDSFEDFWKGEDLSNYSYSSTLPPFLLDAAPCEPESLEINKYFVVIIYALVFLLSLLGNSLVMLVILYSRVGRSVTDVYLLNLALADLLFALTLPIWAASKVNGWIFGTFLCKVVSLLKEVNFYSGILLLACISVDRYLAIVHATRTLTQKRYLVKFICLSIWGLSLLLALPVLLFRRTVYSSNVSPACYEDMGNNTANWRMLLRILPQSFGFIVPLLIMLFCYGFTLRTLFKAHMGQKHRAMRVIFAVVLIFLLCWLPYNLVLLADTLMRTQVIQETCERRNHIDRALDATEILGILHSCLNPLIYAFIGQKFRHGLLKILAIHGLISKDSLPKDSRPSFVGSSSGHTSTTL
The format is cell membranes, CHO-K1, Membrane. Conditions: cho-k1.

Experiment [3] concerns the target T3, Alpha-1A adrenergic receptor (Rattus norvegicus, UniProt P43140).
T3 sequence (P43140 whole entry): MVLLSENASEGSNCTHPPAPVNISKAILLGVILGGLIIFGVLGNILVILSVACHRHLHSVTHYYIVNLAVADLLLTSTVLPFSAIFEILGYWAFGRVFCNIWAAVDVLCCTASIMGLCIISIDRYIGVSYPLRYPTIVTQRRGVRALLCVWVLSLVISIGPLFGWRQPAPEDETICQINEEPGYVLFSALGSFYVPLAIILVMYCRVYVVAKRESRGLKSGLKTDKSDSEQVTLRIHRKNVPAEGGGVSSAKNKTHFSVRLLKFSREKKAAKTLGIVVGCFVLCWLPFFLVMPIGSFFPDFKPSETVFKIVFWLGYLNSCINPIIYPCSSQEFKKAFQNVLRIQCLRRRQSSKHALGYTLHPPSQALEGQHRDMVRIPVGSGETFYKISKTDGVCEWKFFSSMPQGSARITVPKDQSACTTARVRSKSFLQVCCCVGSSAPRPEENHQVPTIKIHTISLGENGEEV
The experiment in a line: DRUGMATRIX: Alpha-1A adrenergic receptor radioligand binding (ligand: prazosin). It counts as cell membranes, Wistar, Submaxillary gland, Membrane. The conditions noted are these: Not Active = under 50% inhibition at 10 µM.

A further experiment has as its target T4, Neutrophil elastase (Homo sapiens, UniProt P08246).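 Note: inhibition of neutrophil elastase enzyme activity, measured with a p-nitroanilide-linked peptide substrate; in other assays of this panel Not Active means under 50% inhibition at 10 µM.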
T4 sequence (P08246 whole entry): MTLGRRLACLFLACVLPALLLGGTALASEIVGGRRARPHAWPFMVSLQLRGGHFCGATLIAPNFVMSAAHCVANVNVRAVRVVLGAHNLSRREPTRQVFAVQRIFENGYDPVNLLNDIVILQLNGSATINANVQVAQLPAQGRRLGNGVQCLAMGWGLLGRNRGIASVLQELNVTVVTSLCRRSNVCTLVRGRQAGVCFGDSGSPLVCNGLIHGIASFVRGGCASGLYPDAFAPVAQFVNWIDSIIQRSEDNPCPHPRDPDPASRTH
The format is tissue-based.

Another experiment addresses T5, D(4) dopamine receptor (Homo sapiens, UniProt P21917).
T5 sequence (P21917 whole entry): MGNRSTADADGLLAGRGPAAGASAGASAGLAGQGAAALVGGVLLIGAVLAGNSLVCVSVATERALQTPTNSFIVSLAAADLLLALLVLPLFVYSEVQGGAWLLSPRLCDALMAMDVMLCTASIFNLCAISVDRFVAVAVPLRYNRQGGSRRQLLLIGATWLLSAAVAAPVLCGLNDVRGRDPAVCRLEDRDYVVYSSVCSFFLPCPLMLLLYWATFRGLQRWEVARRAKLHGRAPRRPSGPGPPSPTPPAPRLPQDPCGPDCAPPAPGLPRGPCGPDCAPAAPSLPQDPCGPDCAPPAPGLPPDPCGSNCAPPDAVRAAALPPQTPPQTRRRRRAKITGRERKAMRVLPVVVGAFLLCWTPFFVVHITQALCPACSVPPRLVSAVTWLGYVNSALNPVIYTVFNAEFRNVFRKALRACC
As to the kind of experiment: DRUGMATRIX: Dopamine D4.2 radioligand binding (ligand: [3H] Spiperone). The format is cell membranes, CHO-K1, Membrane. The conditions noted are these: cho-k1; Not Active = under 50% inhibition at 10 µM.

Experiment [4] in a line: DRUGMATRIX: Calcium Channel Type L, Benzothiazepine radioligand binding (ligand: [3H] Diltiazem). It counts as cell membranes, Rattus norvegicus, Wistar, Brain, Membrane. Conditions: Not Active = under 50% inhibition at 10 µM.

Regarding `CC[C@H](C)C(=O)O[C@H]1CCC=C2C=C[C@H](C)[C@H](CC[C@@H]3C[C@@H](O)CC(=O)O3)[C@H]21` [MEVASTATIN], the IC50 entry (in experiment [1]; in experiment [2]; in experiment [3]; at Neutrophil elastase; on D(4) dopamine receptor; in experiment [4]) was “Not Active” each time. The inhibition constant Ki entry in experiment [4] is listed as “Not Active”.

For the molecule `CC#C[C@]1(O)CC[C@H]2[C@@H]3CCC4=CC(=O)CCC4=C3[C@@H](c3ccc(N(C)C)cc3)C[C@@]21C` [MIFEPRISTONE], the IC50 entry was “Not Active” in experiment [1]; “Not Active” in experiment [2]; “Not Active” in experiment [3]; “Not Active” at Neutrophil elastase; “Not Active” at D(4) dopamine receptor; 29 µM in experiment [4] (read-out: IC50). Moreover, in experiment [4] (read-out: Ki), the inhibition constant (Ki) was 25.8 µM.

Consider `Cc1[nH]c(=O)c(C#N)cc1-c1ccncc1` [MILRINONE], for which the IC50 result (in experiment [1]; in experiment [2]; in experiment [3]; on Neutrophil elastase; on D(4) dopamine receptor; in experiment [4]) was “Not Active” in each case. The Ki result in experiment [4] is recorded as “Not Active”.

Regarding `CO[C@@]12[C@H](COC(N)=O)C3=C(C(=O)C(C)=C(N)C3=O)N1C[C@@H]1N[C@@H]12` [MITOMYCIN], the IC50 result (in experiment [1]; in experiment [2]; in experiment [3]; on Neutrophil elastase; at D(4) dopamine receptor; in experiment [4]) was “Not Active” each time. The inhibition constant (Ki) entry in experiment [4] was “Not Active”.

`CCOc1cc(N)c(Cl)cc1C(=O)NCC1CN(Cc2ccc(F)cc2)CCO1` (configuration not stated) [MOSAPRIDE]: the IC50 entry (in experiment [1]; in experiment [2]; in experiment [3]; against Neutrophil elastase; at D(4) dopamine receptor; in experiment [4]) was “Not Active” in each case. Moreover, the inhibition constant (Ki) result in experiment [4] was “Not Active”.

`CCN(CC)N=O` [N-NITROSODIETHYLAMINE]: the IC50 result (in experiment [1]; in experiment [2]; in experiment [3]; on Neutrophil elastase; at D(4) dopamine receptor; in experiment [4]) was “Not Active” throughout. Further, the Ki entry in experiment [4] is reported as “Not Active”.

For `O=C1CC[C@@]2(O)[C@H]3Cc4ccc(O)c5c4[C@@]2(CCN3CC2CC2)[C@H]1O5` [NALTREXONE], the IC50 result (in experiment [1]; in experiment [2]; in experiment [3]; on Neutrophil elastase; at D(4) dopamine receptor; in experiment [4]) was “Not Active” throughout. For the same molecule, the inhibitory constant (Ki) result in experiment [4] is recorded as “Not Active”.

Take `Oc1ccc(/C=C/c2cc(O)cc(O)c2)cc1` [RESVERATROL]: the IC50 result (in experiment [1]; in experiment [2]; in experiment [3]; against Neutrophil elastase; on D(4) dopamine receptor; in experiment [4]) was “Not Active” throughout. Moreover, the Ki entry in experiment [4] is “Not Active”.

In the case of `CC(N)C12CC3CC(CC(C3)C1)C2` (configuration not stated) [RIMANTADINE], the IC50 entry (in experiment [1]; in experiment [2]; in experiment [3]; against Neutrophil elastase; on D(4) dopamine receptor; in experiment [4]) was “Not Active” in each case. Further, the Ki entry in experiment [4] is reported as “Not Active”.

As to `CS(=O)(=O)c1ccc(C2=C(c3ccccc3)C(=O)OC2)cc1` [ROFECOXIB], the IC50 result (in experiment [1]; in experiment [2]; in experiment [3]; against Neutrophil elastase; at D(4) dopamine receptor; in experiment [4]) was “Not Active” throughout. In addition, the Ki result in experiment [4] is recorded as “Not Active”.

Consider `C=CCc1ccc2c(c1)OCO2` [SAFROLE], for which the IC50 result (in experiment [1]; in experiment [2]; in experiment [3]; on Neutrophil elastase; on D(4) dopamine receptor; in experiment [4]) was “Not Active” throughout. The Ki result in experiment [4] was “Not Active”.
